From patent US20230184743A1, “SCREENING METHODS TO IDENTIFY SMALL MOLECULE COMPOUNDS THAT PROMOTE OR INHIBIT THE GROWTH OF CIRCULATING TUMOR CELLS, AND USES THEREOF” (University of Southern California, priority 2020, published 2023)
Entries after “also recorded” stand apart in the source; their conditions may differ.

What was measured:
[1] = tested on: single CTCs from 4 patient-derived CTC lines (BRx07, BRx42, BRx50, and BRx68); test: Validation of candidate compounds: single CTC proliferation over 24 days (AUC); type: cell-based, human
Protocol: Cell culture. CTC lines were previously derived from metastatic breast cancer patients. CTC lines were cultured in ultra-low attachment plates with RPMI 1640 medium, supplemented with EGF (20 ng/mL), bFGF (20 ng/mL), 1×B27 and 1× antibiotic/antimycotic, in 4% 02 and 5% CO2. Single CTCs were cultured in GravityTRAP™ ULA 96 well Plates (PerkinElmer). Wells on the edges of the plates were not used to avoid influence from evaporation. Media with fresh compounds were exchanged every 3 days by inserting pipet tips onto the platform of the wells to prevent accidentally aspirating suspended CTCs at the bottom. CTC numbers were counted manually under an inverted microscope every 6 days.
FACS sorting. Cells were pelleted and resuspended into single cell suspension in 1% BSA in PBS buffer with 7-AAD. Live single CTCs were sorted directly into 96-well GravityTRAP™ ULA Plates using a MoFlo cell sorter (Beckman Coulter). An inverted microscope was used to manually confirm that there was 1 CTC per well, 1 hour after sorting.
Compounds screening. Compounds were from the StemSelect library obtained from the Choi Family Therapeutic Screening Facility at the Eli and Edythe Broad CIRM Center for Regenerative Medicine and Stem Cell Research at USC. Each compound was given a code to ensure unbiased assessment and blinded to the investigators. Compound information is listed in Appendix, at Table 1 of US Provisional Application No. U.S. 62/990,445, incorporated herein by reference). In the first-round screening, compounds were used with […] concentration. Stocks of compounds (10 mM concentration in DMSO) were stored in aliquots at −80° C. All compounds were thawed and refrozen for a maximum of 2 times. In the second-round validation, fresh compounds were dissolved in DMSO (Millipore sigma), and aliquots were stored at −20° C. and used only once without refreezing. Only wells started from single cells on day 0 after sorting were used in the screening experiment. Data collection was done in batches.
Statistical analysis. […] AUC was calculated for each well in each batch, by plotting days in the x-axis and the corresponding number of cells in the y-axis, then drawing a line to connect the number of cells from the starting count day to the next count day until the end day, and finally calculating the area under this line as the sum of areas of trapezoids. […] Statistical tests were performed using R. For absolute number of cells quantification, total number of cells at end of experiment in each well in each batch was compared between treated cells and untreated control and significance was analyzed with Student t test. For other experiments, data were analyzed with Student t test, and represent the means±SEM of at least triplicate samples or averages ±SD of independent analyses, as indicated. […]

BRx68-GFP+ cells = test: RNA-seq analysis of pools of growing single cell clones; type: cell-based, human; settings: day 6; NAC 0.3 mM, P4D8 1 μM
Protocol: RNA-seq analysis. BRx68-GFP+ cells were sorted, with 1 cell per well, using the MoFlo cell sorter (Beckman Coulter). Single cells were cultured in the presence of CTC media containing either 1 μM of P1C2, P4D8, or P1G7, or 0.3 mM of NAC or a combination of 1 μM of P1C2 and 0.3 mM of NAC. Cells cultured in media containing DMSO served as a control. All cells were cultured for either 6 days or 13 days at 37° C., 5% CO2 and 4% O2, and media was changed every 3 days. For both day 6 and day 13 groups, only clones with more than 3 cells at day 6 were harvested and pooled to a maximum of 50 cells. […] Libraries were sequenced on an Illumina NextSeq500 to obtain 75 bp-long single-end reads.
RNA-sequencing reads were trimmed for Nextera and Illumina adapter sequences using Trim Galore under default parameters. Trimmed reads were then mapped to the human genome build GRCh37 from Ensembl (ftp:/][/ftp.ensembl.org/pub/grch37/current/fasta/homo_sapiens/dna/Homo_sapiens.GRCh37.dna_sm.primary_as sembly.fa.gz) using STAR under optimized parameters for single-end sequenced data. Aligned reads were then counted via feature-Counts and piped into DESeq2 for normalization to sequencing depth and downstream analysis. […]

## CC(=O)N[C@@H](CS)C(=O)O [NAC, N-acetyl-L-cysteine]
[1]; after initial expansion from single CTCs
  additional growth advantages from treatment once a single cell colony reaches a critical size: does not seem to confer additional growth advantages
[1]; all 4 CTC lines, NAC 300 μM, P1C2 1 μM or 0.5 μM, 24 days
  single CTC expansion compared to controls: promote growth of single CTCs; also recorded: statistically significant improvement
BRx68-GFP+ cells
  lipid metabolism pathway enrichment (IPA of differentially expressed genes) compared with control: enriched
